According to patent US9334523B2, “Substrates and methods for staining live stem cells” (LIFE TECHNOLOGIES CORPORATION, priority 2011, dated 2016):
Entries after “also recorded” stand apart in the source; their conditions may differ. Where two headings read alike, the source gives them in different places.

Tests used:
[1] = system: differentiating osteoblasts versus AdSCs; test: Staining of adipose derived mesenchymal stem cells and derived osteoblasts; type: cell-based; conditions: FIG. 8
Excerpt: Alkaline phosphatase is also expressed at high levels in differentiating osteoblasts and mature osteocytes.

[2] = system: H9 ESCs; test: Live staining of H9 ESCs cultured on MEF feeders with alkaline phosphatase substrates; type: cell-based, human; conditions: for concentration range of fluorescence: FIG. 1; for concentration at which robust staining of ESC colonies was achieved: FIG. 2
Experimental: (§1) Here, two test alkaline phosphate substrates, Fluorescein diphosphate-AM ester (FDP-AM) and DDAOP-AM ester were tested for live staining on pluripotent stem cells like H9 ESCs cultured on MEF (mouse embryonic fibroblast) feeder cells. H9 ESCs and other stem cells expressed high alkaline phosphatase. Negative control cells were MEFs and human dermal fibroblasts which express far lower levels of alkaline phosphatase.
(§2) A 10 mM substrate master stock solution (1000×) of fluorescein diphosphate-AM ester (FDP-AM) or DDAOP-AM was prepared (for FDP-AM for e.g., by adding 512.5 μL of tissue culture grade DMSO to 4 mg of the compound (MW: 780.52)).
(§3) Then, 100 μL of 10 mM FDP-AM or DDAOP-AM solution was diluted into 900 μL of DMEM to make 1 mM working stock; or 10 μM working stock was prepared by diluting 10 μl to 10 ml with 100 mM Tris-HCl pH 8.2 or DMEM basal media; or 1 μM working stock was prepared by diluting 10 μL of 1 mM working stock in 10 ml of DMEM, which was used.
(§4) The AP (alkaline phosphatase) live compound with concentrations ranging: >1 μM, 5 μM, 10 μM, 50 μM, 100 μM, and 200 μM, was made by adding 1, 5, 10, 50, 100 and 200 μL of 1 mM FDP-AM or DDAOP-AM working stock. Similarly, the AP live compounds with concentrations ranging: >20 nM, 50 nM, 100 nM, 250 nM, 500 nM, and 800 nM, was made by adding 2, 5, […], 25, 50 and 80 μL of 1 μM FDP-AM working stock. The first dilution was added to an empty plate (no seeded cells) containing DMEM. The final concentration of the substrates, on the cells, were as follows: 50-200 nM for FDP-AM, and 50-200 μM for DDAOP-AM.
(§5) Incubation times were then determined, beginning with 90 seconds. Where no FITC expression was detected, expression was continued for up to 30 minutes. Levamisole was added to the wash buffer to quench the reaction. This step is whoever optional and not necessary. The samples were rinsed with DMEM and visualized.

[3] = system: MEF (mouse embryonic fibroblast) feeder cells; test: Background staining in negative control cells (MEFs, fibroblasts); type: cell-based
Experimental: as §1, §2, §3, §4, §5

[4] = system: mouse ESCs; test: Live staining of mouse ESCs on MEF feeders; type: cell-based; conditions: 200 nM, 30 min
Excerpt: Alkaline phosphatase is not specific just for human ESCs but also for murine ESCs. […] The fluorescent signal is robust and visible at lower 5× magnification [FIG. 7].

CC(=O)OCOP(=O)(OCOC(C)=O)Oc1ccc2c(c1)C(C)(C)C1=C(Cl)C(=O)C(Cl)=CC1=N2 [DDAOP-AM, DDAO phosphate-AM ester]
specificity of staining of osteoblasts versus parent AdSC/MSC [1]: failed to show specific staining; also recorded: does not show specific staining
morphology of stained ESCs [2]: altered morphology
concentration range of fluorescence [2]: micomolar range
concentration at which robust staining of ESC colonies was achieved [2]: 200 µM
background staining in negative control MEFs [3]: high background expression
background staining in negative control MEFs ([3]; listed as DDAO-AM): higher background in negative control cells

O=C1OC2(c3ccc(O)cc3Oc3cc(O)ccc32)c2ccccc21 [fluorescein]
effect on viability or morphology of stained cells [2]: does not affect the viability or morphology

CC(=O)OCOP(=O)(OCOC(C)=O)Oc1ccc2c(c1)Oc1cc(OP(=O)(OCOC(C)=O)OCOC(C)=O)ccc1C21OC(=O)c2ccccc21 [FDP-AM, Fluorescein diphosphate-AM ester]
background in MEF feeder cells of mESC culture [4]: minimal background staining; also recorded: little or no background
staining of mESC colonies [4]: specially stains mESC; also recorded: robust staining
specificity of staining of osteoblasts versus parent AdSC/MSC [1]: specific staining of differentiating osteoblasts with minimal background in its parental undifferentiated MSC; also recorded: specific staining for the differentiated phenotype (osteoblast) but not in AdSCs
staining of ESC colonies [2]: successful staining; also recorded: robust staining
time for substrate to diffuse out of the ESC [2]: within two hours
viability of cells after the substrate diffuses out [2]: viable overnight
proliferation of stained cells after removal of the substrate ([2]; 100-200 nM, 30 minutes): continue to proliferate even after removal of the substrate
concentration range of fluorescence [2]: nanomolecular range
concentration at which robust staining of ESC colonies was achieved [2]: 0.2 µM
cell-specific marker expression of stained cells ([2]; after staining and removal of the substrate): retain their cell-specific marker expression; also recorded: retained their marker expression
re-staining with a second exposure the following day ([2]; after washing, culturing overnight, 30 min exposure): successfully re-stained
removal of fluorescent stain from stained cells ([2]; media with substrate replaced with fresh ESC culture media): completely removed
background staining in negative control MEFs [3]: minimal background
